The values below come from patent US6248905A, “Acyl derivatives of glycosyl-L-ascorbic acid” (priority 1998, dated 2001).

A short description of data set [1]: Radical-entrapping ability (DPPH oxidation-inhibitory activity). To be noted: for EC50: DPPH, ambient temperature, 20 min, read-out: EC50 (50% oxidation-inhibitory-concentration); for Oxidation inhibitory effect (%): sample concentration 10^-4 M. It is filed as biochemical. As for the experimental part: In parallel, as a control, a system using a 60 v/v % aqueous ethanol solution was provided in place of the test samples, and treated similarly as in the case of the acyl derivatives. The percentage (%) of the absorbance of the test samples to that of the control was regarded as an oxidation-inhibitory activity, and the activity was used as an index of radical-entrapping ability. The 50% oxidation-inhibitory-concentration (EC50) was calculated based on a logarithmic value of a concentration of the test sample used and on an oxidation-inhibitory ability shown by the sample at the concentration.

For data set [2], the system named is guinea pigs with scorbutus. The data set is described as follows: Anti-scorbutus test. It is filed as in vivo, male Hurtley's guinea pigs. The settings on record: for days needed to recover maximum body weight before initiating the administration: oral, 56.80 μmol/head/shot once every morning. As for the experimental part:
In accordance with the method as reported in Journal of Pharmacobio-Dynamics, Vol. 13, pp. 688-695 (1990) by the present inventors, male Hurtley's guinea pigs, 4-week-old, were bred under free intake of water and vitamin C-defective food, commercialized by Oriental Yeast Co., Ltd., Tokyo, Japan, while the guinea pigs were weighed every morning at a prescribed time as an index of the symptom of anti-scorbutus disease. […] In parallel, one group as a control, in which guinea pigs were administered with only a fresh preparation of the same water free of the specimens, was provided and treated similarly as in the groups with the specimens.

The nature of data set [3]: Dynamic test, intravenous administration to rats (blood level). The data set is classed as in vivo, Male Wister/ST rats. As for the experimental part:
Male Wister/ST rats, 12-14-week-old, were fasted for 16 hours and, under an anesthetic, 200-μl blood was taken from their hearts using a syringe injected with a physiological saline containing 600 units/ml heparin. […] Just after the administration and after a prescribed period of time from the administration, blood was taken from the rats similarly as above at a prescribed time interval, and the blood taken was admixed with an adequate amount of heparin and instantly centrifuged at 4° C. to collect supernatants.

The subject of data set [4] is artificial skin (TESTSKIN, human-skin-restructuring-model). The experiment in a line: Skin permeation test using TESTSKIN
Description: According to the specification affixed to the product, a medium for assay was injected to a plate for assay in a volume of 1.2 ml/well, and a transferring well, attached with an artificial skin, was loaded on the bottom of the plate, and attached with an assay ring applied with a silicone grease in the middle of the transferring well.
The settings on record: 10 mM, 37° C., peak levels.

Another data set is described as follows: physchem. The settings on record: phosphate buffer, pH 7. As for the experimental part: To the solution was added 9.8 ml of 100 mM phosphate buffered aqueous solution (pH 7.0), and the aqueous solution was sterilized, and then incubated at 37° C. or 60° C. while the aqueous solution was sampled at prescribed times, followed by freezing the samples instantly at -30° C. for storing. Thereafter, the aqueous solution stored by freezing was thawed, analyzed on HPLC, and determined for the remaining content of the acyl derivatives based on the absorbance at a wavelength of 254 nm.

In the case of `CCCCCCCC(=O)OC[C@H](O)[C@H]1OC(=O)C(O[C@H]2O[C@H](CO)[C@@H](O)[C@H](O)[C@H]2O)=C1O` [Example 6-Octa-AA-2G, 2-O-α-D-monoglucopyranosyl-6-O-octanoyl-L-ascorbic acid], in data set [1], the EC50 came to 82.7 µM and the “Oxidation inhibitory effect (%)” value is on record as 60.4%. Further, the “days needed to recover maximum body weight before initiating the administration” value in data set [2] was “six”. Further, in data set [3] (metabolite, after maximum), the “blood level of 2-O-α-D-monoglucopyranosyl-L-ascorbic acid after its maximum, when administered with 6-Octa-AA-2G” value was “undetectable level”. Besides, the concentration at 0.25 h in data set [3] (rat, blood, 15 min after administration, read-out: blood level of 6-Octa-AA-2G) is 38.2 µM. Besides, in data set [3] (rat, blood, two minutes after administration, read-out: blood level of 6-Octa-AA-2G), the concentration at 2 min was 525 µM. Besides, the “blood level of L-ascorbic acid compared with 2-O-α-D-monoglucopyranosyl-L-ascorbic acid” value in data set [3] (throughout experiment) was “exceeded”.

In the case of `CCCCCCCCCCCC(=O)OC[C@H](O)[C@H]1OC(=O)C(O[C@H]2O[C@H](CO)[C@@H](O)[C@H](O)[C@H]2O)=C1O` [Example 6-Dode-AA-2G, 6-O-dodecanoyl-2-O-α-D-monoglucopyranosyl-L-ascorbic acid], in data set [1], the EC50 amounted to 63.2 µM and the “Oxidation inhibitory effect (%)” value is given as 78.3%. The “skin permeability (peak level) relative to L-ascorbic acid” value in data set [4] amounted to 7 times.

`O=C1O[C@H]([C@@H](O)CO)C(O)=C1O` [AsA, L-Ascorbic acid]: in data set [1], the EC50 is 46.4 µM and the “Oxidation inhibitory effect (%)” value is 93.7%. Also, in “physchem”, the degraded at 12 h is 75.9% and the degraded at 72 h came to 68.3%.

`O=C1O[C@H]([C@@H](O)CO)C(O)=C1O[C@H]1O[C@H](CO)[C@@H](O)[C@H](O)[C@H]1O` [AA 2G, 2-O-α-D-Monoglucopyranosyl-L-ascorbic acid]: in data set [1], the EC50 worked out at 90.3 µM and the “Oxidation inhibitory effect (%)” value came out at 55.4%. For the same molecule, the “internal bleeding caused by scorbutus” value in data set [2] (anatomic finding) was “no such an observation”. Also, in data set [2] (blood), the “blood level of alkaline phosphatase” value is reported as “recovered almost to the normal level”. Moreover, the “level of L-ascorbic acid in the blood” value in data set [2] (blood, numeral data excluded) is given as “recovered nearly to a normal level”. Moreover, the “level of L-ascorbic acid in the liver” value in data set [2] (liver, numeral data excluded) is recorded as “recovered nearly to a normal level”. Moreover, in data set [2], the “days needed to recover maximum body weight before initiating the administration” value is recorded as “eight”. In addition, in the data set “physchem”, the degraded at 48 h came to 3.9% and the degraded at 336 h was 1.6%.

`CCCCCC(=O)OC[C@H](O)[C@H]1OC(=O)C(O[C@H]2O[C@H](CO)[C@@H](O)[C@H](O)[C@H]2O)=C1O` [Example 6-Hexa-AA-2G, 2-O-α-D-monoglucopyranosyl-6-O-hexanoyl-L-ascorbic acid]: in data set [1], the EC50 was found to be 91 µM and the “Oxidation inhibitory effect (%)” value is on record as 55.1%.

As for `CCCC(=O)OC[C@H](O)[C@H]1OC(=O)C(O[C@H]2O[C@H](CO)[C@@H](O)[C@H](O)[C@H]2O)=C1O` [Example 6-Buty-AA-2G, 6-O-butyryl-2-O-α-D-monoglucopyranosyl-L-ascorbic acid], in data set [1], the EC50 is 99.8 µM and the “Oxidation inhibitory effect (%)” value is reported as 50.1%.

`CCCCCCCCCC(=O)OC[C@H](O)[C@H]1OC(=O)C(O[C@H]2O[C@H](CO)[C@@H](O)[C@H](O)[C@H]2O)=C1O` [Example 6-Deca-AA-2G, 6-O-decanoyl-2-O-α-D-monoglucopyranosyl-L-ascorbic acid]: in data set [1], the EC50 came out at 73 µM and the “Oxidation inhibitory effect (%)” value was determined as 67.5%.
